{
  "source": "paper PMC6825215",
  "about": "“An anionic, endosome-escaping polymer to potentiate intracellular delivery of cationic peptides, biomacromolecules, and nanoparticles” (Nature Communications, 2019)",
  "key": {"[1]": {"system": "HCAVSMCs", "assay": "Inhibitor uptake studies", "format": "cell-based, human", "settings": "for inhibition at 100 µM / inhibition at 0.1 µM: Homo sapiens; for effect of inhibitor during PPAA pretreatment only on subsequent YARA-MK2i peptide uptake: no inhibitor present during peptide treatment"}, "[2]": {"system": "Luciferase expressing A7r5 cells", "assay": "Luciferase gene-silencing assay", "format": "cell-based, rat", "settings": "sequentially delivered 25 nM siRNA as peptide-siRNA polyplexes", "method": "Luciferase expressing A7r5 cells were seeded in a black, clear bottom 96-well plate at a density of 10,000 cells/well in DMEM containing 10% FBS and 1% P/S and allowed to adhere overnight. D-DPB NPs, PepFect-siRNA polyplexes, and CADY-siRNA polyplexes were formulated and loaded with luciferase or scrambled siRNA as noted above. […] Luciferase gene silencing was calculated compared with cells treated with an equivalent dose of scrambled siRNA loaded into D-DPB NPs as a control."}, "[3]": {"system": "HMVECs", "assay": "Vivo-morpholino colocalization with LysoTracker Red", "format": "cell-based, human", "settings": "delivery with either 2.5 or 5 µM PPAA, 5 µM vivo-morpholino", "method": "HMVECs were seeded into Lab-Tek II 8-well chambered coverslips at a density of 10,000 cells/well and incubated overnight. […] Lysotracker staining, imaging of cells, and image processing was carried out as noted above in the peptide endosomal escape experiment."}, "[4]": {"system": "human coronary artery vascular smooth muscle cells (HCAVSMCs)", "assay": "Flow cytometric uptake and retention of fluorescently labeled peptide", "settings": "5 µM Alexa-488 labeled peptide, mass ratios 3:1 to 1:20 peptide:polymer, 30 min, flow cytometry", "method": "(§1) Cells were treated as defined in the following sections in Opti-MEM medium supplemented with 1% penicillin-streptomycin and 1% FBS. For all flow cytometry assays, following treatment or post-treatment incubation, cells were washed 2× in PBS without calcium or magnesium, harvested with 0.05% trypsin-EDTA, centrifuged, resuspended in 300 µL of 0.05% Trypan blue in PBS without calcium or magnesium, and transferred to a 96-well plate for analysis on an EMD Millipore Guava easyCyte™ 5HT flow cytometer with InCyte software for data acquisition. […] All samples were run in triplicate. All flow cytometric uptake data are presented as fold increase in peptide, vivo-morpholino, or nanoparticle uptake relative to treatment with an equivalent dose of the corresponding fluorescently labeled peptide, vivo-morpholino, or nanoparticle formulation alone. Absolute fluorescence data of peptide uptake is shown in the supplement (Supplementary Figs. 4 and 7).\n(§2) Cells were then treated with each formulation for 30 min.\nCell culture medium containing the polymer treatment was then aspirated, and cells were subsequently treated with fluorescent peptide or vivo-morpholino alone for 30 min.\nHCAVSMCs were seeded and treated for 30 min as noted above."}, "[5]": {"system": "HEK 293-T LgBiT cells", "assay": "NanoLuc luciferase intracellular bioavailability assay", "format": "cell-based, human", "settings": "sequential delivery of 5 µM PPAA followed by 0.5 or 1 µM YARA-HiBiT, 30 min each; 6 h incubation", "method": "HEK 293-T LgBiT cells were seeded into a collagen-coated 96-well plate in DMEM with 10% FBS and 1% P/S and allowed to incubate for 24 h. […] The treatment was then removed and cells were incubated in 10% FBS media for 6 h. Prior to reading, the TECAN Infinite M1000 Pro plate reader was warmed to 37 °C. The cells were treated with 1 μM DrkBiT for 2 min, after which the NanoLuc substrate was added. The plate was immediately read on the plate reader in a kinetic luminescence cycle for 20 min. Peak luminescence data points were calculated by taking the average of the five readings at the peak of the kinetic curve."}, "[6]": {"system": "HCAVSMCs, HMVECs, RAW 264.7, MCF7, and HEK 293T cells", "assay": "Polymer dose-dependent YARA-MK2i uptake in five cell types", "settings": "co-delivery with 2–5 µM PPAA; all five cell lines; flow cytometry", "method": "as §1, §2"}, "[7]": {"settings": "read-out: inhibition of YARA-MK2i peptide uptake, co-delivery with 5 µM PPAA, inhibitor (100 nM wortmannin, 100 µM dynasore) 30 min pretreatment and throughout treatment"}, "[8]": {"settings": "read-out: inhibition of YARA-MK2i peptide uptake, sequential delivery, 5 µM PPAA then peptide, inhibitor (100 nM wortmannin, 100 µM dynasore) 30 min pretreatment and throughout treatment"}},
  "note": "Read-outs that look alike come from different tables or passages of the source. Where no end group is shown, it is not given here.",
  "data": [
    {"compound": "O=C(N/N=C/c1ccc(O)c(O)c1)c1cc2ccccc2cc1O", "note": "[dynasore, Dynasore]", "values": [
      {"measurement": "effect on uptake of fluorescent PPAA polymer (without peptide)", "setting": "[1]; 0-200 µM dynasore, 30 min pretreatment, rhodamine labeled PPAA", "value": "dose-dependently inhibited internalization"},
      {"measurement": "inhibition at 100 µM", "setting": "[1]; [7]", "value": "~30", "unit": "%"},
      {"measurement": "inhibition at 100 µM", "setting": "[1]; [8]", "value": "~44", "unit": "%"},
      {"measurement": "effect of inhibitor during PPAA pretreatment only on subsequent YARA-MK2i peptide uptake", "setting": "[1]", "value": "dose-dependent increase in subsequent YARA-MK2i peptide internalization"}
    ]},
    {"compound": "COC[C@H]1OC(=O)c2coc3c2[C@@]1(C)C1=C(C3=O)[C@@H]2CCC(=O)[C@@]2(C)C[C@H]1OC(C)=O", "note": "[wortmannin, Wortmannin]", "values": [
      {"measurement": "inhibition at 0.1 µM", "setting": "[1]; [7]", "value": "~69", "unit": "%"},
      {"measurement": "inhibition at 0.1 µM", "setting": "[1]; [8]", "value": "~89", "unit": "%"},
      {"measurement": "effect of inhibitor during PPAA pretreatment only on subsequent YARA-MK2i peptide uptake", "setting": "[1]", "value": "significantly reduced subsequent peptide uptake"}
    ]},
    {"compound": "Ac-GLWRALWRLLRSLWRLLWRA-cya (Ac-GLWRALWRLLRSLWRLLWRA-cysteamide) [CADY, secondary amphipathic CPP, nucleic acid delivery vector]", "values": [
      {"measurement": "effect of PPAA pretreatment on gene-silencing activity of siRNA polyplexes", "setting": "[2]", "value": "enhanced the gene-silencing activity"}
    ]},
    {"compound": "CD47 vivo-morpholino: phosphorodiamidite morpholino oligomer conjugated to a cationic octa-guanidine dendrimer; 5′-CGTCACAGGCAGGACCCACTGCCCA (all phosphorodiamidate morpholino (PMO); octa-guanidine dendrimer conjugated, position not given here, further chemistry not fully specified)", "values": [
      {"measurement": "colocalization with the endolysosomal dye LysoTracker Red", "setting": "[3]", "value": "significantly reduced CD47 vivo-morpholino colocalization"}
    ]},
    {"compound": "Dextran sulfate", "values": [
      {"measurement": "effect of inhibitor during PPAA pretreatment only on subsequent YARA-MK2i peptide uptake", "setting": "[1]", "value": "Neither methyl-β-cyclodextrin nor dextran sulfate addition during PPAA pretreatment had any effects on subsequent peptide uptake"}
    ]},
    {"compound": "GRKKRRQRRRPPQKALARQLGVAA [TAT-MK2i]", "values": [
      {"measurement": "effect of co-delivery with PPAA (pre-complexed NPs) on peptide uptake", "setting": "[4]", "value": "consistently increased peptide uptake"}
    ]},
    {"compound": "KLRKVSpK [VASP (no CPP)]", "values": [
      {"measurement": "effect of co-delivery with PPAA (pre-complexed NPs) on peptide uptake", "setting": "[4]", "value": "no polymer effect on uptake"}
    ]},
    {"compound": "Methyl-β-cyclodextrin", "values": [
      {"measurement": "effect of inhibitor during PPAA pretreatment only on subsequent YARA-MK2i peptide uptake", "setting": "[1]", "value": "Neither methyl-β-cyclodextrin nor dextran sulfate addition during PPAA pretreatment had any effects on subsequent peptide uptake"}
    ]},
    {"compound": "RQIKIWFQNRRMKWKKKALARQLGVAA [Penetratin-MK2i]", "values": [
      {"measurement": "effect of co-delivery with PPAA (pre-complexed NPs) on peptide uptake", "setting": "[4]", "value": "did not display significant PPAA-mediated enhancement of uptake with co-delivery"}
    ]},
    {"compound": "RRRRRRKALARQLGVAA [R6-MK2i]", "values": [
      {"measurement": "effect of co-delivery with PPAA (pre-complexed NPs) on peptide uptake", "setting": "[4]", "value": "consistently increased peptide uptake"}
    ]},
    {"compound": "Stearyl-AGYLLGKLLOOLAAAALOOLL [PepFect, stearylated, secondary amphipathic CPP, nucleic acid delivery vector]", "values": [
      {"measurement": "effect of PPAA pretreatment on gene-silencing activity of siRNA polyplexes", "setting": "[2]", "value": "enhanced the gene-silencing activity"}
    ]},
    {"compound": "YARAAARQARA-HiBiT [YARA-HiBiT, YARA CPP fused to the HiBiT peptide of the NanoLuc platform]", "values": [
      {"measurement": "intracellular delivery (NanoLuc luminescence)", "setting": "[5]", "value": "significantly enhanced intracellular delivery"}
    ]},
    {"compound": "YARAAARQARA-KLRKVSpK [YARA-VASP]", "values": [
      {"measurement": "effect of co-delivery with PPAA (pre-complexed NPs) on peptide uptake", "setting": "[4]", "value": "Very similar trends in PPAA dose-dependent uptake"}
    ]},
    {"compound": "YARAAARQARAKALARQLGVAA [YARA-MK2i]", "values": [
      {"measurement": "fold increase in uptake of the YARA-MK2i peptide", "setting": "[6]", "value": "10–30 fold"}
    ]}
  ]
}
